Read-outs that look alike come from different tables or passages of the source. Marks after values point to notes of the source that are not given here.
How the values were obtained:
MCF-10A cells = test system: MCF-10A cells; parameters: method as in PMID 23403296, PMID 33117773, PMID 24849787, PMID 30964898; details: cited from earlier work
NHDF = experiment: ATP-based luminescence cell viability assay (ViaLight), 72 h; details: NHDF (normal human dermal fibroblasts); 72 h treatment; read-out: EC50 Values of Olive Oil Polyphenols
Method: The antiproliferative/cytotoxic effects of the selected OOPs on each cell line were assessed by measuring the cellular ATP levels after 72 h treatments using an ATP-based luminescence assay. This assay, initially developed as a tumor chemosensitivity assay, has shown considerable promise as a general in vitro toxicity assay due to its high sensitivity that allows the detection of a small number of cells. Consequently, it can be applied to both cancer cell lines and primary tissue cells. […] The EC50 values were calculated by nonlinear regression (curve fit) using a sigmoidal dose–response equation (Figure 2A and Figure S2).
The OOPs tested in this study were first dissolved in an appropriate DMSO volume such as to prepare a final stock solution of 50 mM, which was further used to prepare various compound concentrations in DMSO-based solutions. The final DMSO concentration in the cell culture was maintained constant in all treated groups of any given experiment and never exceeded the value of 0.2% (v/v). For the treatment experiments, cells were plated in 96-well culture plates, in 100 μL of complete medium at a seeding density of 5000–10,000 cells/well—depending on cells’ size and doubling time—and were allowed to adhere overnight (~16 h). The next day, 150 μL of complete medium was added to each well and the cells were treated with various concentrations of OOPs. Each concentration was tested in triplicate and was repeated 2–3 times. To prepare the final concentration solutions, 0.5 μL of a 500× stock of each tested compound in DMSO was added directly into each well in a final volume of 250 μL culture medium and was gently mixed by pipetting. Control wells were prepared under the same experimental conditions by adding only DMSO at a final concentration of 0.2% (v/v). Compounds were not renewed during the entire period of cell exposure. All cells were cultured at 37 °C in a 5% (v/v) CO2 for 24, 48 or 72 h.
Briefly, after the treatment with OOPs, the adapted medium was removed from the dish wells and the cells were washed twice with medium without FBS. Then, the C-lysis (LT27-076) was diluted in PBS (1:2) and a volume of 50 μL was added to each well. Cells were incubated with C-lysis for at least 10 min. Finally, an equal volume of lysed cells from each well and ATP monitoring reagent (AMR; LT27-212) was transferred to the wells of a white-walled illuminometer plate (Greiner bio-one; 655074). Cell viability was quantified by measuring luminescence using a multi-mode microplate reader Safire^2 Tecan (software Magellan V6.00 STD.2PC WIN.20000/XP).

AGS = experiment: EdU incorporation cell proliferation assay, 24 h; type: cell-based, human; details: for % Inhibition ± SE of cell proliferation: 24 h at EC50, normalized with the control; for % EdU +ve ± SE (S-phase cells): 24 h treatment at EC50 concentration
Method: (§1) For this purpose, ten cancer cell lines (i.e., MDA-MB 231, SK-BR-3, MCF-7, A2058, SK-MEL-28, AGS, HepG-2, PANC-1, H1299 and Hela) originating from breast, melanoma, stomach, hepatic, pancreatic, lung and cervical tumors were analyzed in parallel with control samples (i.e., the same cells treated only with 0.2% (v/v) DMSO). […] Subsequently, the treated cells were allowed to incorporate 5-ethynyl-2′-deoxyuridine (EdU) into replicating DNA according to the protocol described in detail in the Experimental Section. EdU, a thymidine analog, can be incorporated into DNA in vivo and detected later by using copper-catalyzed azide–alkyne cycloaddition (click reaction) without prior DNA denaturation. The pool of cells in the S phase can be then easily detected by fluorescence (FL) microscopy or by flow cytometry by analyzing the incorporation of EdU in replicating DNA of single cells. In this study, after EdU incorporation, the nuclei of the entire cell population were stained with Hoechst and imaged by confocal microscopy (Experimental Section). EdU-positive nuclei, marked by green FL, as well as the total number of nuclei, marked by blue FL, were enumerated by applying the Icy image analysis algorithm on the digital images acquired by confocal microscopy.
(§2) Human cancer cells were plated onto sterile glass coverslips (10-mm diameter, 5161063, ThermoFisher Scientific, Waltham, MA, USA) in 24-well tissue culture plates, at a density 5 times the density of cells seeded in 96-well plate and at a final medium volume of 500 μL. In order to obtain homogeneous plating, 250 μL of the medium was added directly to the wells already containing coverslips. Using a tip perpendicularly, coverslips were pressed in order to ensure their attachment to the bottom of the well. The cells were then seeded by adding 250 μL of single-cell suspension drop by drop following a cross path. Immediately after seeding, the plate was shaken back and forth at least ten times to achieve homogeneous plating. The cells were allowed to adhere overnight (~16 h) at 37 °C and 5% (v/v) CO2. The next day, a volume of 500 μL fresh medium was added to each well and the treatment with OOPs was initiated by adding directly to the wells 2 μL of OOPs from the 500× stock in DMSO and immediately mixed afterward by pipetting. […] Control cells were prepared under the same experimental conditions using DMSO instead of the OOPs’ solutions in DMSO at the same final concentration (0.2% (v/v) DMSO). […] Each condition was performed in duplicate. After treatment with the OOPs, live proliferating mammalian cells were labeled with 5-ethynyl-2’-deoxyuridine (EdU), a nucleoside analog of thymidine, using the Cell proliferation kit III (EdU-FM, PK-CA724-488FM, Promokine, Heidelberg, Germany). More specifically, a 20 μM EdU solution from a 10 mM stock in DMSO was prepared in a fresh culture medium. Culture supernatant was removed from treated cells to leave only 250 μL. An equal volume of 20 μM EdU solution was added and mixed with the medium to obtain a 10 μΜ EdU final concentration. The treated cells were incubated for the desired time of pulse length (2–4 h) under conditions optimal for each cell type depending on each cell line’s doubling time. Following incubation, cells were washed twice with PBS, then fixed with 4% (w/v) paraformaldehyde in PBS for 15 min at room temperature (RT), and subsequently washed twice with 3% (w/v) BSA for 5 min each time. Cells were permeabilized by incubation (20 min, RT, in the dark) with 0.5% (v/v) Triton-X 100 in PBS. Following permeabilization the cells were washed twice with 3% (w/v) BSA in PBS and incubated for 30 min with the reaction cocktail, according to the instructions of the Cell proliferation kit III (EdU-488; FM). After staining for replicating DNA, the cells were washed three times with 3% (w/v) BSA in PBS, and were then incubated (10 min, at RT) with Hoechst 33342 in PBS (1:10.000) to visualize all the nuclei. […]

H1299 = experiment: EdU incorporation cell proliferation assay, 24 h; type: cell-based, human; details: for % Inhibition ± SE of cell proliferation: 24 h at EC50, normalized with the control; for % EdU +ve ± SE (S-phase cells): 24 h treatment at EC50 concentration
Method: as §1, §2

SK-MEL-28 = experiment: EdU incorporation cell proliferation assay, 24 h; type: cell-based, human; details: for % Inhibition ± SE of cell proliferation: 24 h at EC50, normalized with the control; for % EdU +ve ± SE (S-phase cells): 24 h treatment at EC50 concentration
Method: as §1, §2

SK-BR-3 = experiment: EdU incorporation cell proliferation assay, 24 h; type: cell-based, human; details: for % Inhibition ± SE of cell proliferation: 24 h at EC50, normalized with the control; for % EdU +ve ± SE (S-phase cells): 24 h treatment at EC50 concentration
Method: as §1, §2

Compound | sensitivity of cells to treatment (MCF-10A cells; 150 μM) | EC50 (NHDF) [µM] | % Inhibition ± SE of cell proliferation (AGS) | % EdU +ve ± SE (S-phase cells) (AGS) | % Inhibition ± SE of cell proliferation (H1299) [%] | % EdU +ve ± SE (S-phase cells) (H1299) [%] | % Inhibition ± SE of cell proliferation (SK-MEL-28) | % EdU +ve ± SE (S-phase cells) (SK-MEL-28) | % Inhibition ± SE of cell proliferation (SK-BR-3) [%] | % EdU +ve ± SE (S-phase cells) (SK-BR-3) [%] | sensitivity of cells to treatment (MCF-10A cells; 40 μM) | sensitivity of cells to treatment (MCF-10A cells; 50 μM)
COC(=O)C1=COC(C)[C@@H](C=O)[C@@H]1CC(=O)OCCc1ccc(O)c(O)c1 (mixture of isomers) [3a,b, oleuropein aglycone] | resistant | 42.7 ± 0.5 | 28.9 ± 1.5 ^a % | 18.4 ± 1.5 ^a % | 29.1 ± 6.5 | 31.9 ± 5.9 | 24.7 ± 0.7 ^a % | 0.7 ± 0.3 ^a % | 16.9 ± 1.7 | 6.6 ± 3.5 | – | –
C/C=C(/C=O)[C@@H](CC=O)CC(=O)OCCc1ccc(O)cc1 [compound 1, oleocanthal] | – | 24.7 ± 0.4 | – | 16.2 ± 4.4 ^a % | – | 14.0 ± 1.9 | – | 15.0 ± 4.8 ^a % | – | 9.5 ± 3.9 | resistant | –
C/C=C(/C=O)[C@@H](CC=O)CC(=O)OCCc1ccc(O)c(O)c1 [compound 2, oleacein] | – | 49 ± 1.2 | 31.0 ± 3.5% | 14.7 ± 0.4% | 47.8 ± 4.1 | 13.2 ± 3.5 | 20.3 ± 4.0% | 1.8 ± 0.4% | 16.2 ± 2.4 | 7.4 ± 0.7 | – | –
ligstroside aglycone [4a,b] | – | 46.5 ± 5 | 31.6 ± 2.6% | 14.0 ± 0.5% | – | – | 4.7 ± 4.6 ^a % | 20.8 ± 5.1 ^a % | 4.8 ± 3.1 | 18.8 ± 1.3 | – | resistant

Reference: publication PMC9820430, “New Affordable Methods for Large-Scale Isolation of Major Olive Secoiridoids and Systematic Comparative Study of Their Antiproliferative/Cytotoxic Effect on Multiple Cancer Cell Lines of Different Cancer Origins” (International Journal of Molecular Sciences, 2022)
